Laboratory results from US20090326007A1, “Compounds and methods for modulating sir2 protein activity” (priority 2007, published 2009).
“Also recorded” adds a separate entry of the source. Like-named read-outs stand apart in the source and are kept apart here. Blank lines part the entries; values can stand above or below the compound they belong to. *1 amine or outer side, *2 acyl side, *3 side chain or, on linkers, in order; H or OH if unused. Where a SMILES comes first, the peptide text is derived from it. Bridges are numbered along the chain shown (N, C = ends). [ ]: non-standard residue; d: D form. X1 = CC(C)CCCCCCCCC[C@H](CC(=O)[*:1])O[*:2]

How the values were obtained:
Hst2 [1] = biological target: T1, Hst2 (Saccharomyces cerevisiae, UniProt P53686); assay: SAR analysis, fluorigenic assay at 50 and 500 μM; type: biochemical; details: FIG. 2, 50 μM and 500 μM compound
T1 sequence (P53686 1-294): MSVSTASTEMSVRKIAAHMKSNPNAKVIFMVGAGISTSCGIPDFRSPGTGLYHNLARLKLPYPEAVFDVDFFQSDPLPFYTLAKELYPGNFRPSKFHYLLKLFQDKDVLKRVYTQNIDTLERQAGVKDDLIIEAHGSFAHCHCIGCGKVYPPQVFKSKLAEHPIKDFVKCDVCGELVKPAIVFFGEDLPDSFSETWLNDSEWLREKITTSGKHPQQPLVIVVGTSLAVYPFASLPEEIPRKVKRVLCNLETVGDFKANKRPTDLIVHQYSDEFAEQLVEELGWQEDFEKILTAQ
Source text: Structure Activity Relationship (SAR) Analysis.

Hst2 [2] = biological target: T1, Hst2; assay: IC50 determination, fluorigenic deacetylase assay, Hst2
Experimental: (§1) IC50 Determination. […] The dose-response curves were then fit to one-site competition or sigmoidal-dose response curves as appropriate in [sequence] PRISM (GraphPad Software, La Jolla, Calif.) and the IC50 was determined. Three independent IC50 measurements were performed for each compound and the average and standard deviation are reported.
The resulting deacetylase activity for the three experiments was averaged and reported as a percentage relative to control wells containing no inhibitor.

full-length human SIRT1 = biological target: T2, full-length human SIRT1 (Homo sapiens, UniProt Q96EB6); assay: IC50 determination, fluorigenic deacetylase assay, FL SIRT1
T2 sequence (Q96EB6 1-747): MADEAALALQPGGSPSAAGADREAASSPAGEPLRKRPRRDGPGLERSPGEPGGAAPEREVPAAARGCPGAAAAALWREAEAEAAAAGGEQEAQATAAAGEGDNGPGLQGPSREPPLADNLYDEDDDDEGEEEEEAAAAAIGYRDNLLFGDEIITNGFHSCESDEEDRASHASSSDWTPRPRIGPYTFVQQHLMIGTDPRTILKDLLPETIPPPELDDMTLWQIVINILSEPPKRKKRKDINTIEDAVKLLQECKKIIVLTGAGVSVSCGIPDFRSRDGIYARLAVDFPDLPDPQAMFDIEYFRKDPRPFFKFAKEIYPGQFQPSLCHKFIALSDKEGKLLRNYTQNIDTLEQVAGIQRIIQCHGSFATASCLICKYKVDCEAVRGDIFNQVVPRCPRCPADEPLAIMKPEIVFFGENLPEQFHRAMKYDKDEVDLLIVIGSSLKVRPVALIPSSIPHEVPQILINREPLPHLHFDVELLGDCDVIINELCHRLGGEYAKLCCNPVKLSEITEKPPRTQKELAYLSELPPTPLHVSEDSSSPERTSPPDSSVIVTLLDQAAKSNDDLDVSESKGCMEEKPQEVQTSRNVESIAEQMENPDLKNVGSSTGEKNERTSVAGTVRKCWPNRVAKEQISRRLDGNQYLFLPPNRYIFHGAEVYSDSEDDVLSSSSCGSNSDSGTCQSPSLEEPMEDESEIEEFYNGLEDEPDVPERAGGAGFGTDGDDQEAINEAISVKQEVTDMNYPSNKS
Experimental: Cells were harvested and lysed by sonication in buffer containing 50 mM Tris, pH 7.5, 200 mM NaCl, 5 mM imidizole, 10 mM β-mercaptoethanol (BME) and 0.1 mg/mL PMSF. Soluble FL SIRT1 was purified by Ni-NTA (Qiagen, Valencia, Calif.) in a buffer containing 50 mM Tris, pH 7.5, 300 mM NaCl, 10 mM BME, 5% glycerol and 30-600 mM imidizole followed by SUPERDEX-200 gel filtration in buffer containing 50 mM Tris, pH 7.5, 150 mM NaCl, and 10 mM BME. FL SIRT1 eluted between the 670 kDa and 158 kDa globular protein standards. Since SIRT1 is known to aggregate after several days at 4° C., the protein was aliquoted and frozen at −80° C. for use in fluorigenic assays.
as §1

Hst2 [3] = biological target: T1, Hst2; assay: Competition assay (inhibition mode versus NAD+ and acetyl-lysine substrate); type: biochemical
Experimental: Competition Assay. […] The fluorigenic assay described above was used with a fixed enzyme concentration of 1 μM. When competition with NAD^+ was being tested, the FLUOR DE LYS-SIRT1 deacetylase substrate was held at a constant concentration of 100 μM and the NAD^+ was titrated from ⅓-5× KmNAD+ (5-80 μM). […] The inhibitors were titrated from ˜½-several times their estimated Ki as indicated. The reaction time was 15 minutes, and each condition was tested in duplicate. The Km, kcat and kcat/Km values were determined by direct fit of the data in SIGMAPLOT (Systat Software, Point Richmond, Calif.) to the Michealis-Menten equation. The Ki and Kis (the slope and intercept inhibition constants, respectively) and the competition type were also determined by a direct fit in SIGMAPLOT to both partial and full competitive, noncompetitive, uncompetitive and mixed competition models. Best-fit models were determined by several statistical methods including R^2, AICs and Sy.x as well as empirical evaluation of α and β values.
To determine the mechanism of inhibition of the compounds identified by HTS and to gain insight as to where these compounds may bind to the enzyme, inhibition modes were determined by varying each of the substrates with the other maintained at a fixed, saturating concentration (Table 11).

human SIRT2 = biological target: T3, human SIRT2 (Homo sapiens, UniProt Q8IXJ6); assay: Inhibition assay against human SIRT2 (fluorigenic)
T3 sequence (Q8IXJ6 1-352 isoform Q8IXJ6-2): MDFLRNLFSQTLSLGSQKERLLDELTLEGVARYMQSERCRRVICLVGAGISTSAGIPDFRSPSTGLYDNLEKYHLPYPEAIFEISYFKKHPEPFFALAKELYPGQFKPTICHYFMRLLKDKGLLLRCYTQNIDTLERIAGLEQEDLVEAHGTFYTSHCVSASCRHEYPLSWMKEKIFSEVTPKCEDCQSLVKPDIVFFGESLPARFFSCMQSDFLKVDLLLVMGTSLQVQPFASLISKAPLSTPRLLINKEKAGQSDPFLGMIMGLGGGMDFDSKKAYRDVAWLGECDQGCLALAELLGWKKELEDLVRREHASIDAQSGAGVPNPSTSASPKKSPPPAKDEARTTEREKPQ
Experimental: (§2) Human recombinant SIRT3 was purchased from Enzo Life Sciences.
(§3) Inhibition Assay Against Human SIRT2 and SIRT3. […] Two independent measurements were performed for each compound and the average and standard deviation are reported.

human SIRT3 = biological target: T4, human SIRT3 (Homo sapiens, UniProt Q9NTG7); assay: Inhibition assay against human SIRT3 (fluorigenic)
T4 sequence (Q9NTG7 1-399): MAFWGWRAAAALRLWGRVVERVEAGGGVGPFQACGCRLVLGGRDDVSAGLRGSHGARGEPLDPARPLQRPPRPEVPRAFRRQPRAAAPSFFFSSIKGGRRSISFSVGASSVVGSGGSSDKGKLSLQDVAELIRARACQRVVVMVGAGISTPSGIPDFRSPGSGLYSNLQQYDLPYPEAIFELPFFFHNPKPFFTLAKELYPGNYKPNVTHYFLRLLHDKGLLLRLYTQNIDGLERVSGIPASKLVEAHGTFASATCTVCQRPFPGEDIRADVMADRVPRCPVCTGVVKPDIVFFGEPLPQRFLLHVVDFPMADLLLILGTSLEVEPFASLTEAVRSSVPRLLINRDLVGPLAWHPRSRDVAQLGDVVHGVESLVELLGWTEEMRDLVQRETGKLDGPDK
Experimental: as §2, §3

[4] = read-out: Hst2 IC50, Table 5, 160 μM NAD+, 100 μM substrate, 1 μM Hst2, 15 min
[5] = substrate NAD+ varied, acetyl-lysine substrate 100 μM
[6] = substrate acetyl-lysine varied, NAD+ 160 μM

Structure (SMILES): [Hg+2] [Hg^2+]
- inhibition of the Hst2 deacetylase reaction by metal ions (in words) (Hst2 [1]): inhibitors

- IC50 (Hst2 [2]; Table 10, Hst2): No Inh.
Structure (SMILES): O=C(O)CCN1C(=O)c2cc(Cl)c(Cl)cc2C1=O [Compound 39008]

Structure (SMILES): O=C1CCc2c(ccc3ccccc23)O1 [Splitomycin (3), Splitomycin, reference compound]
- IC50 (Hst2 [2]; [4]): > 600 µM

Structure (SMILES): O=c1[nH]c(=S)[nH]c(-c2ccccc2)c1Cc1c(O)ccc2ccccc12 [Cambinol (4), Cambinol, reference compound]
- IC50 (Hst2 [2]): > 1000 µM

- IC50 (Hst2 [2]; Table 10, Hst2): No Inh.
Structure (SMILES): C[S+]([O-])CCC(C(=O)O)N1C(=O)c2ccccc2C1=O (centres unmarked) [Compound 0032]

Structure (SMILES): CC(NC(=O)c1ccccc1/N=C/c1c(O)ccc2ccccc12)c1ccccc1 (centres unmarked) [Sirtinol (2), Sirtinol, reference compound]
- IC50 (Hst2 [2]; [4]): 48 ± 11 µM

Structure (SMILES): S=c1ccccn1[O][Zn][O]n1ccccc1=S [Compound 11b, zinc pyrithione]
- IC50 (Hst2 [2]): 0.65 ± 0.05 µM
- IC50 values (range in words) (Hst2 [2]): sub-micromolar
- IC50 (full-length human SIRT1): 2.7 ± 0.2 µM
- Ki (Hst2 [3]; Ki, substrate NAD+ varied): 0.26 ± 0.08 µM
- Ki (Hst2 [3]; Ki, substrate acetyl-lysine varied): 0.7 ± 0.1 µM
- kcat (Hst2 [3]; substrate NAD+ varied): 0.0145 ± 0.00083 s⁻¹
- Inhibition Mechanism (Hst2 [3]; [5]): fully mixed
- kcat (Hst2 [3]; substrate acetyl-lysine varied): 0.0217 ± 0.0033 s⁻¹
- Inhibition Mechanism (Hst2 [3]; [6]): fully non-competitive; also recorded: NC (full)
- α (mixed inhibition model) (Hst2 [3]; with respect to NAD+): 2.2

- IC50 (Hst2 [2]; Table 10, Hst2): No Inh.
Structure (SMILES): CC(C)C(=O)CCN1C(=O)c2ccccc2C1=O [Compound 04265]

- inhibition of the Hst2 deacetylase reaction by metal ions (in words) (Hst2 [1]): inhibited Hst2 to similar extents
Structure (SMILES): [Fe+2] [Fe^2+]

Structure (SMILES): CC(C)CCCCCCCCC[C@@H]1CC(=O)N[C@@H](CCC(=O)O)C(=O)N[C@@H](CC(C)C)C(=O)N[C@H](CC(C)C)C(=O)N[C@@H](C(C)C)C(=O)N[C@@H](CC(=O)O)C(=O)N[C@H](CC(C)C)C(=O)N[C@@H](CC(C)C)C(=O)O1 [Surfactin (7), Surfactin, reference compound] (EL[dL]VD[dL]L; linker N-C via X1)
- IC50 (Hst2 [2]): > 700 µM
- IC50 (full-length human SIRT1): > 600 µM

Structure (SMILES): O=C(O)CCN1Cc2ccccc2C1=O [Compound 13a, 3-(1-Oxo-1,3-dihydro-isoindol-2-yl)-propionic acid]
- IC50 values (range in words) (Hst2 [2]; Table 5): low micromolar
- inhibitory activity against human SIRT2 (in words) (human SIRT2; 50 or 100 μM compound): only weak inhibitory activity
- remaining activity at 50 µM (human SIRT2; read-out: percent of residual enzyme activity, SIRT2): 89 ± 1.8%
- inhibitory activity against human SIRT3 (in words) (human SIRT3; 50 or 100 μM compound): only weak inhibitory activity
- remaining activity at 50 µM (human SIRT3; read-out: percent of residual enzyme activity, SIRT3): 91 ± 4.3%
- IC50 (full-length human SIRT1; read-out: SIRT1 IC50, Table 5, 240 μM NAD+, 200 μM substrate, 1 μM FL SIRT1, 15 min): 80 ± 5 µM
- kcat (Hst2 [3]; substrate NAD+ varied): 0.0122 ± 0.00217 s⁻¹
- Inhibition Mechanism (Hst2 [3]; [5]): fully non-competitive; also recorded: NC (full)
- Ki (Hst2 [3]; substrate NAD+ varied, read-out: Ki): 30 ± 6 µM
- kcat (Hst2 [3]; substrate acetyl-lysine varied): 0.0167 ± 0.0017 s⁻¹
- Inhibition Mechanism (Hst2 [3]; [6]): fully non-competitive; also recorded: NC (full)
- Ki (Hst2 [3]; substrate acetyl-lysine varied, read-out: Ki): 39 ± 7 µM

Structure (SMILES): Cc1ccc(C(=O)Nc2ccc(S(=O)(=O)O)c3cc(S(=O)(=O)O)cc(S(=O)(=O)O)c23)cc1NC(=O)c1cccc(NC(=O)Nc2cccc(C(=O)Nc3cc(C(=O)Nc4ccc(S(=O)(=O)O)c5cc(S(=O)(=O)O)cc(S(=O)(=O)O)c45)ccc3C)c2)c1 [Suramin (8), Suramin, reference compound]
- IC50 (Hst2 [2]; [4]): 240 ± 70 µM

- inhibition of the Hst2 deacetylase reaction by metal ions (in words) (Hst2 [1]): are not
Structure (SMILES): [Ca+2] [Ca^2+]

Structure (SMILES): [Cd+2] [Cd^2+]
- inhibition of the Hst2 deacetylase reaction by metal ions (in words) (Hst2 [1]): inhibitors
